Assay results taken from the supplement of paper PMC10307832.

Columns and labels:
Test in all cases: relative viability (nuclei count vs DMSO), 5 days (fraction); higher = more cells survive
Carboplatin + Phenformin = compound: C1CC(C1)(C(=O)O)C(=O)O.[NH2-].[NH2-].[Pt+2] [Carboplatin] + N=C(N)NC(=N)NCCc1ccccc1 [Phenformin] (partner 250 µM)
Outline: (§1)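 Five library-drug doses in √10 steps were combined with a fixed anchor-drug dose, or a single drug was given alone, by pin tool to lung cancer cell lines in 1536-well plates the day after seeding. Nuclei were stained and counted after 5 days. Relative viability is the nuclei count in treated wells over that in vehicle wells, taken as the median of duplicate plates.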

GSK126 + Lapatinib = compound: CC[C@H](C)N1C=C(C2=C(C=C(C=C21)C3=CN=C(C=C3)N4CCNCC4)C(=O)NCC5=C(C=C(NC5=O)C)C)C [GSK126] + CS(=O)(=O)CCNCc1ccc(-c2ccc3ncnc(Nc4ccc(OCc5cccc(F)c5)c(Cl)c4)c3c2)o1 [Lapatinib] (partner 2 µM)
Outline: as §1

MLN4924 + Phenformin = compound: NS(=O)(=O)OC[C@@H]1C[C@@H](n2ccc3c(N[C@H]4CCc5ccccc54)ncnc32)C[C@@H]1O [MLN4924] + N=C(N)NC(=N)NCCc1ccccc1 [Phenformin] (partner 250 µM)
Outline: as §1

MLN4924 + Olaparib = compound: NS(=O)(=O)OC[C@@H]1C[C@@H](n2ccc3c(N[C@H]4CCc5ccccc54)ncnc32)C[C@@H]1O [MLN4924] + O=C(c1cc(Cc2n[nH]c(=O)c3ccccc23)ccc1F)N1CCN(C(=O)C2CC2)CC1 [Olaparib] (partner 8 µM)
Outline: as §1

Cell Line | relative viability (Carboplatin + Phenformin; first compound 0.08 µM) | relative viability (Carboplatin + Phenformin; first compound 0.253 µM) | relative viability (Carboplatin + Phenformin; first compound 0.8 µM) | relative viability (Carboplatin + Phenformin; first compound 2.53 µM) | relative viability (Carboplatin + Phenformin; first compound 8 µM) | relative viability (GSK126 + Lapatinib; first compound 0.08 µM) | relative viability (GSK126 + Lapatinib; first compound 0.253 µM) | relative viability (GSK126 + Lapatinib; first compound 0.8 µM) | relative viability (GSK126 + Lapatinib; first compound 2.53 µM) | relative viability (GSK126 + Lapatinib; first compound 8 µM) | relative viability (MLN4924 + Phenformin; first compound 0.04 µM) | relative viability (MLN4924 + Phenformin; first compound 0.1265 µM) | relative viability (MLN4924 + Phenformin; first compound 0.4 µM) | relative viability (MLN4924 + Phenformin; first compound 1.265 µM) | relative viability (MLN4924 + Phenformin; first compound 4 µM) | relative viability (MLN4924 + Olaparib; first compound 0.04 µM) | relative viability (MLN4924 + Olaparib; first compound 0.1265 µM) | relative viability (MLN4924 + Olaparib; first compound 0.4 µM) | relative viability (MLN4924 + Olaparib; first compound 1.265 µM) | relative viability (MLN4924 + Olaparib; first compound 4 µM)
NCI-H1355 | 0.524 | 0.478 | 0.465 | 0.405 | 0.451 | 1.04 | 1.07 | 0.989 | 0.967 | 0.992 | 0.42 | 0.407 | 0.352 | 0.218 | 0.235 | 0.688 | 0.516 | 0.525 | 0.306 | 0.186
NCI-H1395 | 0.476 | 0.446 | 0.497 | 0.379 | 0.402 | 1.04 | 0.973 | 1.3 | 1.14 | 1.03 | 0.447 | 0.499 | 0.481 | 0.382 | 0.357 | 0.415 | 0.426 | 0.367 | 0.339 | 0.364
NCI-H1437 | 0.29 | 0.303 | 0.294 | 0.301 | 0.299 | 0.95 | 0.729 | 0.776 | 0.748 | 0.852 | 0.325 | 0.337 | 0.388 | 0.258 | 0.195 | 0.582 | 0.499 | 0.409 | 0.253 | 0.153
NCI-H1650 | 0.457 | 0.5 | 0.359 | 0.406 | 0.349 | 0.828 | 0.798 | 0.739 | 0.854 | 0.755 | 0.398 | 0.339 | 0.231 | 0.146 | 0.198 | 0.609 | 0.616 | 0.34 | 0.175 | 0.166
NCI-H1651 | 0.386 | 0.335 | 0.288 | 0.272 | 0.218 | 0.896 | 0.834 | 0.805 | 0.843 | 0.894 | 0.347 | 0.317 | 0.313 | 0.171 | 0.157 | 0.176 | 0.182 | 0.176 | 0.138 | 0.0847
NCI-H1666 | 0.612 | 0.6 | 0.531 | 0.565 | 0.49 | 0.635 | 0.608 | 0.724 | 0.704 | 0.695 | 0.509 | 0.453 | 0.449 | 0.265 | 0.337 | 0.774 | 0.691 | 0.657 | 0.468 | 0.388
NCI-H1734 | 0.463 | 0.479 | 0.364 | 0.356 | 0.364 | 1.07 | 1 | 1.03 | 1.18 | 1.15 | 0.339 | 0.44 | 0.229 | 0.118 | 0.122 | 0.652 | 0.547 | 0.128 | 0.108 | 0.107
NCI-H1755 | 0.65 | 0.618 | 0.623 | 0.604 | 0.576 | 1.1 | 1.07 | 1.04 | 1.01 | 1.1 | 0.605 | 0.534 | 0.332 | 0.228 | 0.23 | 0.859 | 0.544 | 0.491 | 0.254 | 0.171
NCI-H1792 | 0.318 | 0.317 | 0.192 | 0.203 | 0.237 | 0.973 | 0.894 | 0.868 | 0.982 | 0.943 | 0.403 | 0.324 | 0.725 | 0.258 | 0.217 | 0.452 | 0.37 | 0.384 | 0.33 | 0.104
NCI-H1793 | 0.444 | 0.496 | 0.289 | 0.35 | 0.405 | 0.867 | 0.467 | 0.647 | 0.583 | 0.629 | 0.292 | 0.367 | 0.313 | 0.224 | 0.183 | 0.833 | 0.964 | 0.991 | 0.297 | 0.194
NCI-H1915 | 0.376 | 0.389 | 0.364 | 0.353 | 0.301 | 1.08 | 0.97 | 1.03 | 0.978 | 0.993 | 0.347 | 0.33 | 0.291 | 0.179 | 0.211 | 0.314 | 0.22 | 0.221 | 0.142 | 0.129
NCI-H1944 | 0.217 | 0.193 | 0.186 | 0.181 | 0.181 | 1.04 | 0.724 | 0.859 | 0.865 | 0.989 | 0.22 | 0.187 | 0.173 | 0.112 | 0.122 | 0.405 | 0.296 | 0.304 | 0.162 | 0.139
NCI-H1975 | 0.437 | 0.43 | 0.437 | 0.413 | 0.394 | 0.952 | 0.898 | 0.916 | 0.852 | 0.888 | 0.418 | 0.479 | 0.494 | 0.328 | 0.184 | 0.706 | 0.948 | 0.829 | 0.498 | 0.213
NCI-H1993 | 0.542 | 0.498 | 0.467 | 0.477 | 0.499 | 0.884 | 0.737 | 0.753 | 0.821 | 0.712 | 0.535 | 0.579 | 0.528 | 0.468 | 0.487 | 0.776 | 0.481 | 0.652 | 0.422 | 0.426
NCI-H2009 | 0.519 | 0.47 | 0.444 | 0.433 | 0.42 | 1.23 | 0.893 | 0.985 | 0.942 | 1.06 | 0.24 | 0.184 | 0.156 | 0.0904 | 0.0791 | 0.449 | 0.382 | 0.143 | 0.146 | 0.0556
